Measured values: patent publication US20220175760A1, “PHARMACEUTICAL FORMULATIONS” (Janssen Pharmaceutica NV, priority 2019, published 2022)
Converted amounts (≈) assume the structure as drawn.

How the values were obtained:
[1] = Solubility of Compound A in FaSSIF; assay type: physicochemical; details: 37 °C
Description: (§1) A 1% solution of PVPVA64 in FaSSIF was prepared by weighing 2.5 g of PVPVA64 in a volumetric flask and dissolving it in 250 mL FaSSIF at 37° C. The complete volume of the volumetric flask was transferred to a suitable Duran bottle. Afterwards, a highly concentrated solution of Compound A monohydrate (obtained according to Example 1) in NMP was prepared (175 mg/mL). At time zero, 679 μL of the highly concentrated Compound A solution (175 mg/mL) was added to the Duran bottle containing 250 mL FaSSIF+1% PVPVA64 (w/v). The added volume Compound A solution was chosen to obtain a theoretical final concentration of 475.5 μg/mL. This concentration results in a suitable degree of supersaturation of Compound A.

[2] = Crystallisation inhibition: XRPD of the precipitate from a supersaturated solution in FaSSIF + 1% PVPVA64; assay type: physicochemical; details: Compound A monohydrate in NMP (175 mg/mL) added to FaSSIF + 1% PVPVA64, 475.5 μg/mL (DS 16), 37° C., 2 hours, 300 rpm
Description: as §1
A precipitate formed immediately after adding the highly concentrated solution. The mixture was equilibrated at 37° C. for 2 hours while stirring at 300 rpm. After 2 hours, the precipitate was separated from the liquid phase by vacuum filtration. The precipitate was then analyzed with Powder X-Ray Diffraction to check if the API present in the formed precipitate was present as an amorphous or a crystalline form.
X-ray powder diffraction (XRPD) analysis was carried out on a PANalytical (Philips) X'PertPRO MPD diffractometer. The instrument is equipped with a Cu LFF X-ray tube. The compound was spread on a zero-background sample holder

- solubility [1]: 0.0297 mg/mL (≈ 63.6 µM)
- Form of the precipitate (amorphous or crystalline) by XRPD [2]: amorphous precipitate
Structure (SMILES): O=C(Nc1ccnc(C(F)(F)F)c1)c1cnn(-c2cccc3c(=O)[nH]ccc23)c1C(F)(F)F [Compound A, 1-(1-oxo-1,2-dihydroisoquinolin-5-yl)-5-(trifluoromethyl)-N-(2-(trifluoromethyl)pyridin-4-yl)-1H-pyrazole-4-carboxamide]
